Assay results published in US20260256792A1, “TREATMENT OF CHRONIC SPONTANEOUS URTICARIA BY ADMINISTERING (R)-2-[3-[4-AMINO-3-(2-FLUORO-4-PHENOXY-PHENYL)PYRAZOLO[3,4-D]PYRIMIDIN-1-YL]PIPERIDINE-1-CARBONYL]-4-METHYL-4-[4-(OXETAN-3-YL)PIPERAZIN-1-YL]PENT-2-ENENITRILE” (priority 2023, published 2026).

Tested on: angioedema in CSU patients
Assay: Phase 2 CSU study: angioedema activity score over 7 days (AAS7)
Assay type: in vivo, human
Conditions: 400 mg TID; for AAS7 % Change difference for rilzabrutinib vs. placebo LS Mean (95% CI) / AAS7 % Change from baseline LS Mean (SE) / AAS7 = 0, Non-responder n (%) / AAS7 = 0, OR (95% CI) for rilzabrutinib vs. placebo / AAS7 = 0, RRD (%) for rilzabrutinib vs. placebo (95% CI) / AAS7 Post-baseline Mean (SD) / Participants with AAS7 = 0, Responder n (%) / AAS7 Change difference for rilzabrutinib vs. placebo LS Mean (95% CI) / AAS7 Change from baseline LS Mean (SE): angioedema at baseline; for Non-responder n (%), AAS7 = 0 / OR (95% CI) for rilzabrutinib vs. placebo, AAS7 = 0 / RRD (%) for rilzabrutinib vs. placebo (95% CI), AAS7 = 0 / Responder n (%), AAS7 = 0: outlier removed
Description: The study comprises a 12 week, randomized, double-blind, placebo-controlled, multi-center, dose-ranging efficacy and safety phase, followed by a 40 week open label extension (OLE) phase (see FIG. 1). The study consists of three phases and an optional OLE phase. […] The weekly angioedema activity score (AAS7) was proposed as a tertiary endpoint. […] Patients were to complete the AAS using the e-diary. The e-diary was to be used once daily on the same time of each day recording of participant's answers to the angioedema activity score over 7 days (AAS7) questionnaire.

## CC(C)(C=C(C#N)C(=O)N1CCC[C@@H](n2nc(-c3ccc(Oc4ccccc4)cc3F)c3c(N)ncnc32)C1)N1CCN(C2COC2)CC1 [rilzabrutinib, (R)-2-[3-[4-amino-3-(2-fluoro-4-phenoxy-phenyl)pyrazolo[3,4-d]pyrimidin-1-yl]piperidine-1-carbonyl]-4-methyl-4-[4-(oxetan-3-yl)piperazin-1-yl]pent-2-enenitrile]
Week 4, omalizumab-naïve
  AAS7 % Change difference for rilzabrutinib vs. placebo LS Mean (95% CI): −49.61 (−90.06, −9.16) %
  AAS7 % Change from baseline LS Mean (SE): −79.54 (14.89) %
  AAS7 = 0, Non-responder n (%): 14 (60.9) n (%)
  AAS7 = 0, OR (95% CI) for rilzabrutinib vs. placebo: 1.519
  AAS7 = 0, RRD (%) for rilzabrutinib vs. placebo (95% CI): 7.3 %
  AAS7 Post-baseline Mean (SD): 11.73 (16.82)
  Participants with AAS7 = 0, Responder n (%): 9 (39.1) n (%)
Week 5, ITT
  AAS7 % Change from baseline LS Mean (SE): −69.87 (9.90) %
  AAS7 Change difference for rilzabrutinib vs. placebo LS Mean (95% CI): −9.32 (−20.56, 1.93)
  AAS7 Change from baseline LS Mean (SE): −38.91 (4.22)
Week 5, omalizumab-naïve
  Non-responder n (%), AAS7 = 0: 14 (41.2) n (%)
  OR (95% CI) for rilzabrutinib vs. placebo, AAS7 = 0: 1.359
  RRD (%) for rilzabrutinib vs. placebo (95% CI), AAS7 = 0: 7.5 %
  Responder n (%), AAS7 = 0: 20 (58.8) n (%)
  AAS7 % Change difference for rilzabrutinib vs. placebo LS Mean (95% CI): −17.62 (−46.15, 10.90) %
  AAS7 = 0, Non-responder n (%): 13 (56.5) n (%)
  AAS7 = 0, OR (95% CI) for rilzabrutinib vs. placebo: 1.550
  AAS7 = 0, RRD (%) for rilzabrutinib vs. placebo (95% CI): 9.8 %
  AAS7 Post-baseline Mean (SD): 10.83 (15.39)
  Participants with AAS7 = 0, Responder n (%): 10 (43.5) n (%)
Week 6, ITT
  AAS7 Change difference for rilzabrutinib vs. placebo LS Mean (95% CI): −11.42 (−23.52, 0.68)
  AAS7 Change from baseline LS Mean (SE): −38.03 (4.48)
  AAS7 Post-baseline Mean (SD): 12.73 (19.47)
Week 6, omalizumab-naïve
  Non-responder n (%), AAS7 = 0: 14 (41.2) n (%)
  OR (95% CI) for rilzabrutinib vs. placebo, AAS7 = 0: 1.334
  RRD (%) for rilzabrutinib vs. placebo (95% CI), AAS7 = 0: 6.5 %
  Responder n (%), AAS7 = 0: 20 (58.8) n (%)
  AAS7 % Change difference for rilzabrutinib vs. placebo LS Mean (95% CI): −15.46 (−46.06, 15.15) %
  AAS7 = 0, Non-responder n (%): 12 (52.2) n (%)
  AAS7 = 0, OR (95% CI) for rilzabrutinib vs. placebo: 1.874
  AAS7 = 0, RRD (%) for rilzabrutinib vs. placebo (95% CI): 13.5 %
  AAS7 Post-baseline Mean (SD): 13.55 (20.58)
  Participants with AAS7 = 0, Responder n (%): 11 (47.8) n (%)
Week 7, ITT
  AAS7 % Change difference for rilzabrutinib vs. placebo LS Mean (95% CI): −22.57 (−53.40, 8.26) %
  AAS7 % Change from baseline LS Mean (SE): −68.52 (11.69) %
  AAS7 Change difference for rilzabrutinib vs. placebo LS Mean (95% CI): −9.86 (−21.60, 1.88)
  AAS7 Change from baseline LS Mean (SE): −37.16 (4.45)
  AAS7 Post-baseline Mean (SD): 12.07 (15.62)
Week 7, omalizumab-naïve
  Non-responder n (%), AAS7 = 0: 15 (44.1) n (%)
  OR (95% CI) for rilzabrutinib vs. placebo, AAS7 = 0: 1.277
  RRD (%) for rilzabrutinib vs. placebo (95% CI), AAS7 = 0: 6.5 %
  Responder n (%), AAS7 = 0: 19 (55.9) n (%)
  AAS7 % Change difference for rilzabrutinib vs. placebo LS Mean (95% CI): −20.11 (−53.85, 13.63) %
  AAS7 % Change from baseline LS Mean (SE): −67.11 (12.58) %
  AAS7 = 0, Non-responder n (%): 13 (56.5) n (%)
  AAS7 = 0, OR (95% CI) for rilzabrutinib vs. placebo: 1.351
  AAS7 = 0, RRD (%) for rilzabrutinib vs. placebo (95% CI): 7.2 %
  AAS7 Post-baseline Mean (SD): 12.43 (15.87)
  Participants with AAS7 = 0, Responder n (%): 10 (43.5) n (%)
Week 8, ITT
  AAS7 % Change difference for rilzabrutinib vs. placebo LS Mean (95% CI): −22.25 (−53.63, 9.12) %
  AAS7 % Change from baseline LS Mean (SE): −74.30 (11.67) %
  AAS7 Change difference for rilzabrutinib vs. placebo LS Mean (95% CI): −11.02 (−22.54, 0.50)
  AAS7 Change from baseline LS Mean (SE): −39.35 (4.28)
  AAS7 Post-baseline Mean (SD): 11.17 (12.56)
Week 8, omalizumab-naïve
  Non-responder n (%), AAS7 = 0: 19 (55.9) n (%)
  OR (95% CI) for rilzabrutinib vs. placebo, AAS7 = 0: 0.964
  RRD (%) for rilzabrutinib vs. placebo (95% CI), AAS7 = 0: −0.9 %
  Responder n (%), AAS7 = 0: 15 (44.1) n (%)
  AAS7 % Change from baseline LS Mean (SE): −73.05 (12.72) %
  AAS7 = 0, Non-responder n (%): 17 (73.9) n (%)
